In US8987250B2 (Gilead Sciences, Inc., priority 2012, dated 2015):
Like-named read-outs stand apart in the source and are kept apart here.

Test system: HIV-IIIb
Assay: Test A: Antiviral Assay in MT4 Cells
Type: cell-based
Conditions: Table 2, MT-4 cells infected with HIV-IIIb, 5 days of incubation, CellTiter-Glo, read-out: EC50
How it was run: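 MT-4 cells pre-infected with HIV-IIIb (0.004 m.o.i.) at 37 °C, then exposed to 3-fold serial compound dilutions (10 concentrations, quadruplicate) in RPMI 1640/10% FBS. After 5 days at 37 °C, viability read by CellTiter-Glo luminescence.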

[1] = Human immunodeficiency virus 1, IIIB, MT4, 120 h

| SMILES | EC50 [1] [nM] | EC50 [nM] |
| --- | --- | --- |
| Cc1cc2nc(-c3ccc4c(=O)n(C)n(C)c4c3)sc2c(-c2ccc(Cl)cc2)c1[C@H](OC(C)(C)C)C(=O)O [Compound 194, (S)-2-tert-butoxy-2-(7-(4-chlorophenyl)-2-(1,2-dimethyl-3-oxo-2,3-dihydro-1H-indazol-6-yl)-5-methylbenzo[d]thiazol-6-yl)acetic acid] | 21 | – |
| Cc1cc2nc(-n3ccc4ccncc4c3=O)sc2c(-c2ccc(Cl)cc2)c1[C@H](OC(C)(C)C)C(=O)O [Compound 195, (S)-2-tert-butoxy-2-(7-(4-chlorophenyl)-5-methyl-2-(1-oxo-2,7-naphthyridin-2(1H)-yl)benzo[d]thiazol-6-yl)acetic acid] | 11 | – |
| Cc1cc2nc(-c3ccnc(-c4cnc5c(c4)cc(C)n5C)c3)sc2c(-c2ccc(Cl)cc2)c1[C@H](OC(C)(C)C)C(=O)O [Compound 196, (S)-2-tert-butoxy-2-(7-(4-chlorophenyl)-2-(2-(1,2-dimethyl-1H-pyrrolo[2,3-b]pyridin-5-yl)pyridine-4-yl)-5-methylbenzo[d]thiazol-6-yl)acetic acid] | 33 | – |
| Cc1cc2nc(-c3cnc4c(c3)cc(C)n4C)sc2c(-c2ccc(Cl)cc2)c1[C@H](OC(C)(C)C)C(=O)O [Compound 197, (S)-2-tert-butoxy-2-(7-(4-chlorophenyl)-2-(1,2-dimethyl-1H-pyrrolo[2,3-b]pyridin-5-yl)-5-methylbenzo[d]thiazol-6-yl)acetic acid] | 12 | – |
| Cc1cc2nc(-c3cnc4c(c3)c(C)cn4C)sc2c(-c2ccc(Cl)cc2)c1[C@H](OC(C)(C)C)C(=O)O [Compound 198, (S)-2-tert-butoxy-2-(7-(4-chlorophenyl)-2-(1,3-dimethyl-1H-pyrrolo[2,3-b]pyridin-5-yl)-5-methylbenzo[d]thiazol-6-yl)acetic acid] | 39 | – |
| Cc1cc2nc(-c3ccnc(-c4cnc5c(c4)c(C)cn5C)c3)sc2c(-c2ccc(Cl)cc2)c1[C@H](OC(C)(C)C)C(=O)O [Compound 199, (S)-2-tert-butoxy-2-(7-(4-chlorophenyl)-2-(2-(1,3-dimethyl-1H-pyrrolo[2,3-b]pyridin-5-yl)pyridine-4-yl)-5-methylbenzo[d]thiazol-6-yl)acetic acid] | – | 95 |
| Cc1cc2nc(-c3ccc4nc(C)n([C@H]5CCN(C)C5)c4c3)sc2c(-c2ccc(Cl)cc2)c1[C@H](OC(C)(C)C)C(=O)O [Compound 200, (S)-2-tert-butoxy-2-(7-(4-chlorophenyl)-5-methyl-2-(2-methyl-1-((S)-1-methylpyrrolidin-3-yl)-1H-benzo[d]imidazol-6-yl)benzo[d]thiazol-6-yl)acetic acid] | 14 | – |
| Cc1cc2nc(-c3cnnc(-c4ccc5c(cnn5C)c4)c3)sc2c(-c2ccc(Cl)cc2)c1[C@H](OC(C)(C)C)C(=O)O [Compound 201, (S)-2-tert-butoxy-2-(7-(4-chlorophenyl)-5-methyl-2-(6-(1-methyl-1H-indazol-5-yl)pyridazin-4-yl)benzo[d]thiazol-6-yl)acetic acid] | 7 | – |
| COc1ccc(-c2nccc(-c3nc4cc(C)c([C@H](OC(C)(C)C)C(=O)O)c(-c5ccc(Cl)cc5)c4s3)n2)cc1OC [Compound 203, (S)-2-tert-butoxy-2-(7-(4-chlorophenyl)-2-(2-(3,4-dimethoxyphenyl)pyrimidin-4-yl)-5-methylbenzo[d]thiazol-6-yl)acetic acid] | 12 | – |
| Cc1cc2nc(-c3ccc(-c4cnn(C)c4C)cc3)sc2c(-c2ccc(Cl)cc2)c1[C@H](OC(C)(C)C)C(=O)O [Compound 204, (S)-2-tert-butoxy-2-(7-(4-chlorophenyl)-2-(4-(1,5-dimethyl-1H-pyrazol-4-yl)phenyl)-5-methylbenzo[d]thiazol-6-yl)acetic acid] | 155 | – |
| Cc1cc2nc(-c3ccnc(C4CCN(C)CC4)n3)sc2c(-c2ccc(Cl)cc2)c1[C@H](OC(C)(C)C)C(=O)O [Compound 205, (S)-2-tert-butoxy-2-(7-(4-chlorophenyl)-5-methyl-2-(2-(1-methylpiperidin-4-yl)pyrimidin-4-yl)benzo[d]thiazol-6-yl)acetic acid] | 18 | – |
| Cc1cc2nc(N3CCc4ncccc4C3)sc2c(-c2ccc(Cl)cc2)c1[C@H](OC(C)(C)C)C(=O)O [Compound 207, (S)-2-tert-butoxy-2-(7-(4-chlorophenyl)-2-(7,8-dihydro-1,6-naphthyridin-6(5H)-yl)-5-methylbenzo[d]thiazol-6-yl)acetic acid] | 19 | – |
| Cc1cc2nc(N3CCc4ccccc4C3)sc2c(-c2ccc(Cl)cc2)c1[C@H](OC(C)(C)C)C(=O)O [Compound 208, (S)-2-tert-butoxy-2-(7-(4-chlorophenyl)-2-(3,4-dihydroisoquinolin-2(1H)-yl)-5-methylbenzo[d]thiazol-6-yl)acetic acid] | 62 | – |
| Cc1cc2nc(-c3ccc4c(C)nn(C)c4c3)sc2c(-c2ccc(Cl)cc2)c1[C@H](OC(C)(C)C)C(=O)O [Compound 209, (S)-2-tert-butoxy-2-(7-(4-chlorophenyl)-2-(1,3-dimethyl-1H-indazol-6-yl)-5-methylbenzo[d]thiazol-6-yl)acetic acid] | 16 | – |
| Cc1cc2nc(-c3ccc4c(c3)nnn4C)sc2c(-c2ccc(Cl)cc2)c1[C@H](OC(C)(C)C)C(=O)O [Compound 210, (S)-2-tert-butoxy-2-(7-(4-chlorophenyl)-5-methyl-2-(1-methyl-1H-benzo[d][1,2,3]triazol-5-yl)benzo[d]thiazol-6-yl)acetic acid] | 6 | – |
| Cc1cc2nc(-c3ccc4c(c3)c(-c3ccncc3)nn4C)sc2c(-c2ccc(Cl)cc2)c1[C@H](OC(C)(C)C)C(=O)O [Compound 213, (S)-2-tert-butoxy-2-(7-(4-chlorophenyl)-5-methyl-2-(1-methyl-3-(pyridin-4-yl)-1H-indazol-5-yl)benzo[d]thiazol-6-yl)acetic acid] | 4 | – |
| Cc1cc2nc(-c3ccc4c(c3)c(-c3ccccn3)nn4C)sc2c(-c2ccc(Cl)cc2)c1[C@H](OC(C)(C)C)C(=O)O [Compound 214, (S)-2-tert-butoxy-2-(7-(4-chlorophenyl)-5-methyl-2-(1-methyl-3-(pyridin-2-yl)-1H-indazol-5-yl)benzo[d]thiazol-6-yl)acetic acid] | 17 | – |
| Cc1cc2nc(-c3ccnc(-c4cc(C)c5c(cnn5C)c4)c3)sc2c(-c2ccc(Cl)cc2)c1[C@H](OC(C)(C)C)C(=O)O [Compound 215, (S)-2-tert-butoxy-2-(7-(4-chlorophenyl)-2-(2-(1,7-dimethyl-1H-indazol-5-yl)pyridin-4-yl)-5-methylbenzo[d]thiazol-6-yl)acetic acid] | 27 | – |
| Cc1cc2nc(-c3ccnc(-c4cc(C)c5nn(C)cc5c4)c3)sc2c(-c2ccc(Cl)cc2)c1[C@H](OC(C)(C)C)C(=O)O [Compound 216, (S)-2-tert-butoxy-2-(7-(4-chlorophenyl)-2-(2-(2,7-dimethyl-2H-indazol-5-yl)pyridin-4-yl)-5-methylbenzo[d]thiazol-6-yl)acetic acid] | 15 | – |
| Cc1cc2nc(-c3ccc4c(c3)nc(C)n4C)sc2c(-c2ccc(Cl)cc2)c1[C@H](OC(C)(C)C)C(=O)O [Compound 217, (S)-2-tert-butoxy-2-(7-(4-chlorophenyl)-2-(1,2-dimethyl-1H-benzo[d]imidazol-5-yl)-5-methylbenzo[d]thiazol-6-yl)acetic acid] | 7 | – |
